According to patent US7879893B2, “Ligands for the HisB10 Zn2 + sites of the R-state insulin hexamer” (Novo Nordisk A/S, priority 2001, dated 2011):
Residues, ends and D or L forms follow the SMILES beside them. *: point of attachment. X1 = O=C1NC(=O)/C(=C/c2cccc(OCC(=O)*)c2)S1; 4Abz = Nc1ccc(C(=O)O)cc1

Test: Disappearance rate from the subcutaneous depot following subcutaneous injection in pigs (T50% of A14 Tyr(125I) insulin)
Format: in vivo, pig
Settings: Asp^B28 human insulin, ligand added in concentrations lower than that of Zn2+, s.c.
Text: The slow release (prolonged action) properties of certain formulations of the present invention was characterized by the disappearance rate from the subcutaneous depot following subcutaneous injections in pigs. T50% is the time when 50% of the A14 Tyr(^125I) insulin has disappeared from the site of injection as measured with an external γ-counter (Ribel et al., The Pig as a Model for Subcutaneous Absorption in Man. In: M. Serrano-Rtios and P. J. Lefebre (Eds): Diabetes (1985) Proceedings of the 12th congress of the International Diabetes Federation, Madrid, Spain, 1985 (Excerpta Medica, Amsterdam (1986), 891-896). The composition of a series of protracted formulations is given in the table below together with the T50% values. The disappearance curves are illustrated in FIG. 3a-d. For comparison, the T50% for the corresponding insulin preparations formulated without the ligands would be about 2 hours.
The induction of slow release by addition of exogenous ligands of the invention affords further advantages in terms of versatility regarding the choice of insulin species and release patterns. Consequently, human or mutant insulins such as Asp^B28, Lys^B28Pro^B29, or Gly^A21Lys^B3Glu^B29 may be formulated as slow- or dual-release preparations by adding variable amounts of His^B10Zn^2+-site ligand. […]

Row | Compound | release pattern of the formulation
1 | N=C(N)NCCC[C@H](NC(=O)[C@H](CCCNC(=N)N)NC(=O)[C@H](CCCNC(=N)N)NC(=O)[C@H](CCCNC(=N)N)NC(=O)[C@H](CCCNC(=N)N)NC(=O)CNC(=O)CNC(=O)c1ccc(NC(=O)COc2cccc(/C=C3\SC(=O)NC3=O)c2)cc1)C(N)=O [TZD-Abz-G2R5, 4-{2-[3-(2,4-Dioxothiazolidin-5-ylidenemethyl)phenoxy]acetylamino}benzoyl-Gly2-Arg5-NH2] ({X1-4Abz}-GGRRRRR-NH2) | distinctly dual-release formulation

Same assay, conditions: Asp^B28 human insulin, ligand added in slight excess of the Zn2+ concentration, s.c.

Row | Compound | T50%
2 | N=C(N)NCCC[C@H](NC(=O)[C@H](CCCNC(=N)N)NC(=O)[C@H](CCCNC(=N)N)NC(=O)[C@H](CCCNC(=N)N)NC(=O)[C@H](CCCNC(=N)N)NC(=O)CNC(=O)CNC(=O)c1ccc(NC(=O)COc2cccc(/C=C3\SC(=O)NC3=O)c2)cc1)C(N)=O [TZD-Abz-G2R5, 4-{2-[3-(2,4-Dioxothiazolidin-5-ylidenemethyl)phenoxy]acetylamino}benzoyl-Gly2-Arg5-NH2] ({X1-4Abz}-GGRRRRR-NH2) | about 14.8

Test: not given
Settings: not given

Row | Compound | melting point
3 | COc1cc(/C=C2\SC(=O)NC2=O)cc(I)c1O | 256 °C
4 | O=C1NC(=O)/C(=C/c2ccc3cc(O)ccc3c2)S1 | 310 to 314 °C
5 | O=C1NC(=O)C(=Cc2c[nH]c3ccc([N+](=O)[O-])cc23)S1 | 330 to 333 °C
6 | O=C1NC(=O)/C(=C/c2c(Cl)cccc2Cl)S1 | 152 to 154 °C
7 | COc1cc(O)cc(OC)c1/C=C1\SC(=O)NC1=O | 331 to 333 °C
8 | Cc1cccc(C)c1/C=C1\SC(=O)NC1=O | 104 to 105 °C
9 | COc1cccc(OC)c1/C=C1\SC(=O)NC1=O | 241 to 242 °C
10 | O=C1NC(=O)/C(=C/c2cc3ccccc3o2)S1 | 265 to 266 °C
11 | CN(C)c1ccc(/C=C/C=C2\SC(=O)NC2=O)cc1 | 259 to 263 °C
12 | CC(/C=C1\SC(=O)NC1=O)=C\c1ccccc1 | 203 to 210 °C
13 | O=C1NC(=O)/C(=C/C(Cl)=C/c2ccccc2)S1 | 251 to 254 °C
14 | O=C1NC(=O)/C(=C/c2cc3ccccc3[nH]c2=O)S1 | 338 to 347 °C
15 | c1cc(COc2ccc3ccccc3c2)cc(-c2nnn[nH]2)c1 | 200 to 202 °C

Test: not given
Settings: inherent limitation, background statement; cited from earlier work

Row | Compound | absorption half-life
16 | soluble human insulin hexamer: "inherent limitation of the absorption half-life to about 4 hours for a soluble human insulin hexamer" | about 4 hours

Same assay, conditions: soluble preparations, background statement; cited from earlier work

Row | Compound | absorption rate (time) after subcutaneous injection
17 | Co^3+-hexamer: "absorption rates vary between about 1 hour (for rapid-acting insulin analogues ...) and about 4 hours (Co^3+-hexamer)" | about 4 hours
